Measured values as given in the supplement of paper PMC10307832.

Key:
Experiment in all cases: relative viability (nuclei count vs DMSO), 5 days (fraction); higher = more cells survive
Everolimus + Crizotinib = compound: CO[C@H]1C[C@@H]2CC[C@@H](C)[C@@](O)(O2)C(=O)C(=O)N2CCCC[C@H]2C(=O)O[C@H]([C@H](C)C[C@@H]2CC[C@@H](OCCO)[C@H](OC)C2)CC(=O)[C@H](C)/C=C(\C)[C@@H](O)[C@@H](OC)C(=O)[C@H](C)C[C@H](C)/C=C/C=C/C=C/1C [Everolimus] + C[C@@H](Oc1cc(-c2cnn(C3CCNCC3)c2)cnc1N)c1c(Cl)ccc(F)c1Cl [Crizotinib] (partner 1 µM)
Summary of the method: (§1)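 For relative viability, nuclei counts in treated wells were divided by those in vehicle wells. Lung cancer cell lines had been pin-tool dosed in 1536-well plates the day after seeding and cultured for 5 days, then fixed and stained in one step (final 0.05% Triton X-100, 1% formaldehyde, 1 ug/ml Hoechst) and imaged at 4×. Doses were one drug alone or a fixed anchor-drug dose plus five library-drug doses (not always all listed) in √10 steps, and values are duplicate-plate medians.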

Everolimus + Navitoclax = compound: CO[C@H]1C[C@@H]2CC[C@@H](C)[C@@](O)(O2)C(=O)C(=O)N2CCCC[C@H]2C(=O)O[C@H]([C@H](C)C[C@@H]2CC[C@@H](OCCO)[C@H](OC)C2)CC(=O)[C@H](C)/C=C(\C)[C@@H](O)[C@@H](OC)C(=O)[C@H](C)C[C@H](C)/C=C/C=C/C=C/1C [Everolimus] + CC1(C)CCC(c2ccc(Cl)cc2)=C(CN2CCN(c3ccc(C(=O)NS(=O)(=O)c4ccc(N[C@H](CCN5CCOCC5)CSc5ccccc5)c(S(=O)(=O)C(F)(F)F)c4)cc3)CC2)C1 [Navitoclax] (partner 0.5 µM)
Summary of the method: as §1

Everolimus + Dasatinib = compound: CO[C@H]1C[C@@H]2CC[C@@H](C)[C@@](O)(O2)C(=O)C(=O)N2CCCC[C@H]2C(=O)O[C@H]([C@H](C)C[C@@H]2CC[C@@H](OCCO)[C@H](OC)C2)CC(=O)[C@H](C)/C=C(\C)[C@@H](O)[C@@H](OC)C(=O)[C@H](C)C[C@H](C)/C=C/C=C/C=C/1C [Everolimus] + Cc1nc(Nc2ncc(C(=O)Nc3c(C)cccc3Cl)s2)cc(N2CCN(CCO)CC2)n1 [Dasatinib] (partner 0.075 µM)
Summary of the method: as §1

Everolimus + Vorinostat = compound: CO[C@H]1C[C@@H]2CC[C@@H](C)[C@@](O)(O2)C(=O)C(=O)N2CCCC[C@H]2C(=O)O[C@H]([C@H](C)C[C@@H]2CC[C@@H](OCCO)[C@H](OC)C2)CC(=O)[C@H](C)/C=C(\C)[C@@H](O)[C@@H](OC)C(=O)[C@H](C)C[C@H](C)/C=C/C=C/C=C/1C [Everolimus] + O=C(CCCCCCC(=O)Nc1ccccc1)NO [Vorinostat] (partner 1 µM)
Summary of the method: as §1

Cell Line | relative viability (Everolimus + Crizotinib; first compound 0.01 µM) | relative viability (Everolimus + Crizotinib; first compound 0.03162 µM) | relative viability (Everolimus + Crizotinib; first compound 0.1 µM) | relative viability (Everolimus + Crizotinib; first compound 0.3162 µM) | relative viability (Everolimus + Crizotinib; first compound 1 µM) | relative viability (Everolimus + Navitoclax; first compound 0.01 µM) | relative viability (Everolimus + Navitoclax; first compound 0.03162 µM) | relative viability (Everolimus + Navitoclax; first compound 0.1 µM) | relative viability (Everolimus + Navitoclax; first compound 0.3162 µM) | relative viability (Everolimus + Navitoclax; first compound 1 µM) | relative viability (Everolimus + Dasatinib; first compound 0.01 µM) | relative viability (Everolimus + Dasatinib; first compound 0.03162 µM) | relative viability (Everolimus + Dasatinib; first compound 0.1 µM) | relative viability (Everolimus + Dasatinib; first compound 0.3162 µM) | relative viability (Everolimus + Dasatinib; first compound 1 µM) | relative viability (Everolimus + Vorinostat; first compound 0.01 µM) | relative viability (Everolimus + Vorinostat; first compound 0.03162 µM) | relative viability (Everolimus + Vorinostat; first compound 0.1 µM) | relative viability (Everolimus + Vorinostat; first compound 0.3162 µM) | relative viability (Everolimus + Vorinostat; first compound 1 µM)
NCI-H1703 | 0.344 | 0.316 | 0.276 | 0.395 | 0.454 | 0.443 | 0.453 | 0.553 | 0.457 | 0.671 |  |  |  |  |  |  |  |  |  | 
NCI-H1755 | 0.777 | 0.715 | 0.679 | 0.6 | 0.554 | 0.75 | 0.624 | 0.599 | 0.646 | 0.513 | 0.421 | 0.232 | 0.37 | 0.419 | 0.318 | 0.616 | 0.599 | 0.61 | 0.568 | 0.602
NCI-H2087 | 1.18 | 1.01 | 0.783 | 0.885 | 0.922 | 0.888 | 0.852 | 0.888 | 0.847 | 0.69 | 0.748 | 0.648 | 0.695 | 0.786 | 0.667 | 0.321 | 0.5 | 0.443 | 0.46 | 0.532
NCI-H2228 | 0.331 | 0.254 | 0.281 | 0.303 | 0.328 | 0.685 | 0.527 | 0.508 | 0.421 | 0.539 | 0.335 | 0.394 | 0.246 | 0.271 | 0.253 | 0.536 | 0.342 | 0.458 | 0.436 | 0.336
NCI-H727 | 0.47 | 0.443 | 0.553 | 0.49 | 0.496 | 0.263 | 0.211 | 0.179 | 0.231 | 0.208 | 0.242 | 0.317 |  | 0.445 | 0.276 | 0.915 | 0.797 | 0.79 | 0.922 | 0.886
NCI-H650 | 0.672 |  | 0.582 | 0.588 | 0.428 |  |  |  |  |  | 0.363 |  | 0.357 | 0.361 | 0.307 | 0.324 | 0.212 | 0.293 | 0.212 | 0.254
EBC-1 | 0.188 | 0.17 | 0.152 | 0.206 | 0.185 | 0.211 | 0.217 | 0.153 | 0.22 | 0.222 |  |  |  |  |  |  |  |  |  | 
NCI-H661 | 1.1 | 1.07 | 0.977 | 0.837 | 0.814 |  |  |  |  |  | 0.694 | 0.56 | 0.575 | 0.615 | 0.472 | 0.607 | 0.687 | 0.671 | 0.678 | 0.555
NCI-H1299 | 0.953 | 0.967 | 0.968 | 0.936 | 1.09 | 1.03 | 1.03 | 1.04 | 1.08 | 1.07 |  |  |  |  |  |  |  |  |  | 
Calu-6 | 0.808 | 0.692 | 0.642 | 0.674 | 0.748 | 0.774 | 0.714 | 0.779 | 0.7 | 0.532 |  |  |  |  |  |  |  |  |  | 
SW 900 |  |  |  |  |  |  |  |  |  |  | 0.571 | 0.345 | 0.34 | 0.45 | 0.335 | 0.41 | 0.301 | 0.339 | 0.37 | 0.266
LCLC-103H | 1.1 | 0.943 | 1.03 | 0.841 | 0.818 |  |  |  |  |  | 0.404 | 0.305 | 0.35 | 0.319 | 0.322 | 0.747 | 0.755 | 0.734 | 0.712 | 0.617
A549 | 0.416 | 0.415 | 0.306 | 0.401 | 0.369 | 0.64 | 0.455 | 0.452 | 0.474 | 0.458 |  |  |  |  |  |  |  |  |  | 
NCI-H522 |  |  |  |  |  |  |  |  |  |  | 0.776 | 0.624 | 0.629 | 0.71 | 0.724 | 0.788 | 0.784 | 0.589 | 0.726 | 0.731
IA-LM | 0.418 | 0.424 | 0.256 | 0.478 | 0.441 | 0.314 | 0.317 | 0.395 | 0.389 | 0.302 |  |  |  |  |  | 0.815 | 0.83 | 0.425 | 0.342 | 0.352
NCI-H1563 | 0.673 | 0.654 | 0.682 | 0.684 | 0.692 |  |  |  |  |  | 0.434 | 0.419 | 0.462 | 0.464 | 0.437 |  |  |  |  | 
HCC-44 | 0.912 | 0.935 | 0.774 | 0.86 | 0.677 | 0.941 | 0.88 | 0.819 | 0.904 | 0.903 |  |  |  |  |  | 1.17 | 1.23 | 1.03 | 1.14 | 1.05
NCI-H1648 |  |  |  |  |  |  |  |  |  |  |  |  |  |  |  | 0.422 | 0.383 | 0.307 | 0.423 | 0.406
NCI-H358 | 0.528 | 0.592 | 0.509 | 0.542 | 0.429 |  |  |  |  |  | 0.115 | 0.138 | 0.133 | 0.0942 | 0.114 | 0.431 | 0.434 | 0.388 | 0.417 | 0.47
ABC-1 | 0.74 | 0.799 | 0.709 | 0.584 | 0.761 |  |  |  |  |  |  | 0.393 | 0.413 | 0.455 | 0.513 | 0.56 |  | 0.741 |  | 0.941
NCI-H2342 |  |  |  |  |  |  |  |  |  |  | 0.274 | 0.323 | 0.277 | 0.262 | 0.319 | 0.559 | 0.438 | 0.524 | 0.56 | 0.633
NCI-H1792 | 0.865 | 0.769 | 0.724 | 0.583 | 0.644 | 0.316 | 0.251 | 0.29 | 0.244 | 0.362 | 0.732 | 0.435 | 0.562 | 0.518 | 0.484 |  |  |  |  | 
